Reference: patent publication US6852735B1, “Siastatin B derivatives having a glycosidase inhibitory activity and processes for producing the same” (Zaidan Hojin Biseibutsu Kagaku Kenkyu Kai, priority 1998, dated 2005)

System: β-D-mannosidase (from snail)
Assay: β-mannosidase inhibition (Test Example 5)
Format: biochemical
Conditions: for inhibition of β-D-mannosidase, in words: summary of Table 1; for 50% inhibiory concentration (IC50) Enzyme F: β-D-mannosidase from snail, substrate p-nitrophenyl-β-D-mannoside, sodium acetate buffer pH 4.5
Protocol: Thus, 0.5 mL of 0.025M citrate-phosphate buffer (pH 4.0), 0.1 mL of the same buffer containing 10 mM p-nitro-phenyl-N-acetyl-α-D-galactosaminide dissolved therein, and 0.1 mL of either water or an aqueous solution containing as the test compound any one of the compounds of the formulae (I), (V) and (X) according to this invention were mixed with each other and pre-incubated in a 96-wells titer plate at 37° C. for 10 minutes. After the completion of the pre-incubation, to the pre-incubated mixture was added 0.01 mL of 0.025 M citrate-phosphate buffer containing α-N-acetyl-galactosaminidase originated from chicken liver (a product of Sigma Company) which was dissolved in said buffer as a glycosidase to be tested. Thereafter, the enzymatic reaction was conducted at 37° C. for 30 minutes.
After the enzymatic reaction, to the reaction solution was added 1.0 mL of 0.3M glycine—sodium hydroxide buffer (pH 10.5), in order to terminate the enzymatic reaction. Thereafter, the absorbance [designated as value (a)] of light at 405 nm of the resulting reaction solution was measured. Concurrently, measurement was made of the absorbance [designated as value (b)] at 405 nm of the reaction solution as obtained in the control test where the enzymatic reaction was conducted without addition of the test compound. Further, measurements were made of the absorbance [designated as values (a′)] and the absorbance [[designated as values (b′)] at 405 nm of the solutions as obtained in the blank test and the control test, respectively, where the enzymatic reaction was not conducted in the assay test. The rate of inhibition to […] was calculated by the equation: [1-(a-a′)/(b-b′)]×100.
The test results obtained are summarized as IC50 value in Table 1 below.
This Test Example is a test example for determining the α-mannosidase or β-mannosidase-inhibitory activity of the compounds according to this invention.
The evaluation of the β-mannosidase-inhibitory activity was conducted according to a modification of the method described in the “Journal of Biological Chemistry”, 242, p.5474 (1967).
Namely, the test was conducted in the same manner as the test for the enzyme-inhibitory activity test described in Test Example 1, but with using α-mannosidase from jack bean or β-mannosidase from snail (both enzymes are products of Sigma Company) as the glycosidase enzyme, with using 0.05 M sodium acetate—acetate buffer (pH 4.5) as the buffer, and with using p-nitrophenyl-α-D-mannoside or p-nitrophenyl-β-D-mannoside as the substrate. Furthermore, absorbances of light were measured in the same manner as in Test Example 1. IC50 values of the test compound capable of giving the 50% inhibition to the enzymes were calculated.

Compound	inhibition of β-D-mannosidase, in words	50% inhibiory concentration (IC50) Enzyme F
O=C(N[C@H]1NC[C@H](CO)[C@H](O)[C@@H]1O)C(F)(F)F [Formula (I), 6-deacetamido-3-decarboxy-3-hydroxymethyl-6-trifluoroacetamido-siastain B]	inhibit strongly	38 µg/mL
CC(=O)NC1NCC(CO)C(O)C1O (stereo not drawn) [Formula (V), 3-decarboxy-4-epi-3-hydroxymethyl-siastain B]	inhibit strongly	10 µg/mL
O=C(N[C@H]1NC[C@H](CO)[C@@H](O)[C@@H]1O)C(F)(F)F [Formula (X), 6-deacetamido-3-decarboxy-4-epi-3-hydroxymethyl-6-trifluoroacetamido-siastain B]	inhibit strongly	1 µg/mL
